Measurements reported in patent US8673981B2, “Phenylcyclobutylamide derivatives and their stereoisomers, the preparation processes and uses thereof” (priority 2008, dated 2014).
Entries after “also recorded” stand apart in the source; their conditions may differ.

How the values were obtained:
[1] = test system: obese rat model; experiment: Weight-reducing pharmacodynamics study in the obese animal model (nutrient feed, 30 days); assay type: in vivo, Sprague Dawley rats; design: Average fat weight coefficient: unit not given here; settings: for Average added multiplier of body weight: (final - initial)/initial average body weight; for Average fat weight coefficient: average fat weight/final average body weight; for Average fat weight: intraperitoneal and perirenal fat; for Final average body weight: rats on nutrient feed
Excerpt: The experimental Study of Weight-Reducing on Pharmacodynamics
Same numbers of male and female weanling Sprague Dawley rats (clean grade, 43.3±8.5 g) were obtained from Laboratory Animal Center (Chongqing medical university, China) (Certificate of Approval for Environmental Facilities: SYXK (Yu) 20020007; Certificate of Approval for animal: SCXK (Yu) 20020001). 1.2 Medicine and Preparation: racemic compound hydrochloride of example 7, optical isomers of examples 8, 9, 10 and 11, and positive control Sibutramine Hydrochloride were dissolved in 1% CMC-Na. 1.3 Test Instrument: TGL-16 table model high speed centrifuge (Shanghai Medical Instruments Factory NO. 6); KDC centrifuge (Huicheng Radio Factory, Guangzhou); Sartorius electronic balance (GERMANY); Medical refrigerator temperature (SANYO, JAPAN); thermostat water bath tank (Beijing Xicheng district medical apparatus factory); VXH-3 Mini Vortex Mixer (Shanghai Yuejin Medical Apparatus Facotry). 1.4 Nutrition Feed: the recipe of nutrition feed and basal feed are as follows:
Barley flour 20%, dehydrated vegetable 10%, bean flour 20%, corn flour 16%, yeast 1%, wheat bran 16%, fish meal 10%, bone meal 5%, salt 2%.
In the 100 g basal feed, milk powder 10 g, lard 10 g, egg 1 piece, fresh bean sprouts 250 g, oleum jecoris piscis concentratum 10 drops (including VA 1700 u, VD1700 u) were added.
2.1 Establishment and Grouping of Obese Animal Model
Weanling SD rats were randomly allocated to compound groups with large, middle, small dosages; positive control Sibutramine Hydrochloride groups with large, middle, small dosages; and obese animal model group and blank control group (n=5/group for male; n=5/group for female).
The experimental animals in blank control group were feed with normal feed, and animals in other groups were feed with nutrient feed. All animals have abundant feed for 24 h and can eat casually.
Experimental animals in each group were administrated with corresponding drugs once a day at 9 am for 30 days, with a dosage of 1 ml/100 g body weight. The dosage corresponds to clinical dosage of 10 mg/person/day for Sibutramine, which is transformed according to the equivalent dosage between human and rat. Large dosage group adopts 1.2 mg/kg; middle dosage group adopts 0.6 mg/kg, and small dosage group adopts 0.3 mg/kg. Obese animal model group: […] of 1% CMC-Na solution; blank control group: […] of 1% CMC-Na solution.
Measurements were taken of daily body weight; general status; hair; eye, mouth and nose secretions; feces, urinate and activities.
Intraperitoneal and perirenal fat were weighted, and the fat weight coefficient was calculated by body weight.

[2] = background statement; cited from earlier work
[3] = large dosage 1.2 mg/kg once a day for 30 days
[4] = middle dosage 0.6 mg/kg once a day for 30 days
[5] = small dosage 0.3 mg/kg once a day for 30 days

| SMILES | Average added multiplier of body weight [1, 3] | Average fat weight coefficient [1, 3] | Average fat weight [1, 3] [g] | Final average body weight [1, 3] [g] | Average added multiplier of body weight [1, 4] | Average fat weight coefficient [1, 4] | Average fat weight [1, 4] [g] | Final average body weight [1, 4] [g] | Average added multiplier of body weight [1, 5] | Average fat weight coefficient [1, 5] | Average fat weight [1, 5] [g] | Final average body weight [1, 5] [g] | Reduction of basal weight [2] | Decrease of body weight compared with Sibutramine ([1]; obese rats, 30 days) | Effect of decreasing fat weight ([1]; obese rats, 30 days, among treatment groups and versus Sibutramine, hydrochloride) |
| --- | --- | --- | --- | --- | --- | --- | --- | --- | --- | --- | --- | --- | --- | --- | --- |
| CCC(C)C(N)C(=O)NC(CC(C)C)C1(c2ccc(Cl)cc2)CCC1.Cl (racemic) [Example 7, 2-amino-N-{1-[1-(4-chlorophenyl)cyclobutyl]-3-methylbutyl}-3-methylvaleramide hydrochloride] | 3.2 | 1.1 | 2.0 | 176.2 | 3.3 | 1.2 | 2.1 | 180.5 | 3.3 | 1.2 | 2.2 | 186.9 | – | – | – |
| CC[C@@H](C)[C@@H](N)C(=O)N[C@@H](CC(C)C)C1(c2ccc(Cl)cc2)CCC1.Cl [Example 10, (2R,3R)-2-amino-N-{(S)-1-[1-(4-chlorophenyl)cyclobutyl]-3-methylbutyl}-3-methylvaleramide hydrochloride] | 3.0 | 1.1 | 1.9 | 173.9 | 3.2 | 1.2 | 2.0 | 180.4 | 3.2 | 1.2 | 2.1 | 185.0 | – | – | – |
| CC[C@H](C)[C@H](N)C(=O)N[C@@H](CC(C)C)C1(c2ccc(Cl)cc2)CCC1.Cl [Example 8, (2S,3S)-2-amino-N-{(S)-1-[1-(4-chlorophenyl)cyclobutyl]-3-methylbutyl}-3-methylvaleramide hydrochloride] | 3.0 | 1.0 | 1.7 | 175.2 | 3.2 | 1.0 | 1.9 | 185.6 | 3.4 | 1.1 | 2.0 | 188.9 | – | – | – |
| CC(C)CC(N(C)C)C1(c2ccc(Cl)cc2)CCC1.Cl.O (stereo not drawn) [Sibutramine, 1-(4-chlorophenyl)-N,N-dimethyl-α-(2-methylpropyl)cyclobutanemethanamine hydrochloride monohydrate, reference compound] | 2.9 | 1.1 | 1.9 | 165.7 | 3.2 | 1.0 | 1.8 | 183.2 | 3.4 | 1.0 | 1.9 | 185.7 | 5%-10% | – | – |
| CC[C@H](C)[C@H](N)C(=O)N[C@H](CC(C)C)C1(c2ccc(Cl)cc2)CCC1.Cl [Example 9, (2S,3S)-2-amino-N-{(R)-1-[1-(4-chlorophenyl)cyclobutyl]-3-methylbutyl}-3-methylvaleramide hydrochloride] | 2.6 | 0.9 | 1.4 | 156.1 | 2.7 | 0.9 | 1.5 | 167.9 | 2.8 | 0.9 | 1.5 | 168.1 | – | decreased the body weight evidently | the best; also recorded: significantly better effect than Sibutramine |
| CC[C@@H](C)[C@@H](N)C(=O)N[C@H](CC(C)C)C1(c2ccc(Cl)cc2)CCC1.Cl [Example 11, (2R,3R)-2-amino-N-{(R)-1-[1-(4-chlorophenyl)cyclobutyl]-3-methylbutyl}-3-methylvaleramide hydrochloride] | 2.8 | 1.1 | 1.8 | 162.4 | 3.0 | 1.1 | 1.9 | 173.2 | 3.2 | 1.2 | 2.1 | 181.0 | – | – | – |
